Experimental data: patent publication EP4789671A1, “PHARMACEUTICAL COMPOSITION CONTAINING URACIL DERIVATIVE” (priority 2023, dated 2025)
Values joined by “and” are separate entries in the source; they are usually repeats but may differ in a detail not shown here. Equal entries are not always repeated. Where two headings read alike, the source gives them in different places.

Assays:
[1] = test system: SARS-CoV-2 hCoV-19/Japan/TY7-501/2021; assay: Effect of human, mouse and hamster sera on anti-SARS-CoV-2 activity (Test Example 7); assay type: cell-based; conditions: Severe acute respiratory syndrome coronavirus 2, 24 h, VeroE6/TMPRSS2 cells, viral RNA, 1 day
[2] = test system: SARS-CoV-2; assay: Inhibitory activity of cytopathic effect (CPE) in VeroE6/TMPRSS2 cells (Test Example 3); assay type: cell-based
[3] = test system: SARS-CoV-2 hCoV-19/Japan/TY11-927/2021; assay type: in vivo, Syrian hamsters; conditions: aged (11-month-old) hamsters
[4] = Cytotoxicity in MRC-5 cells in the absence of virus (Test Example 5); assay type: cell-based; conditions: human
Procedure: MRC-5 cells (2×10^4 cells/well) suspended in growth medium (DMEM supplemented with 10% FBS and penicillin-streptomycin) were seeded into 96-well plates on the day before infection. On the following day, HCoV-OC43 (300 TCID50/well) suspended in maintenance medium (MEM supplemented with 2% FBS and penicillin-streptomycin) was added to infect the cells for 1 hour. The viral fluid is then removed, maintenance medium containing the reagent to be tested is added, and cultured for 72 hours in a CO2 incubator. To evaluate the cytotoxicity of the reagent to be tested, the same procedure was performed in the absence of virus.
The plate that has been cultured for 72 hours is returned to room temperature, subsequently CellTiter-Glo (registered trademark) 2.0 is dispensed into each well, and the plate is mixed using a plate mixer. After standing for a predetermined period of time, the luminescent signal (Lum) is measured using a plate reader.

[5] = test system: SARS-CoV-2 hCoV-19/Japan/TY41-702/2022 strain (Omicron BE.1/BA.5-like); assay type: in vivo, Syrian hamsters
[6] = test system: SARS-CoV-2 hCoV-19/Japan/TY41-702/2022 strain (Omicron BE.1/BA.5-like); set-up: species or system Syrian hamsters; conditions: hamster, in vivo
[7] = test system: SARS-CoV-2 hCoV-19/Japan/TY41-702/2022 (Omicron BE.1/BA.5-like); assay: Viral proliferation-suppression effect using human airway epithelial cells (Test Example 8); assay type: cell-based; conditions: Severe acute respiratory syndrome coronavirus 2, Epithelial cell, 48 h
[8] = test system: HCoV-229E; assay: microbe, parasite or virus in culture; assay type: cell-based; conditions: Human coronavirus 229E, MRC5; MRC-5 cells, 72 hours
[9] = test system: SARS-CoV-2; assay: Cytopathic effect (CPE) suppression test using HEK293T/ACE2-TMPRSS2 cells (Test Example 1); assay type: cell-based; conditions: Severe acute respiratory syndrome coronavirus 2, HEK-293T, 72 h
[10] = test system: HCoV-OC43; assay: microbe, parasite or virus in culture; assay type: cell-based; conditions: Betacoronavirus 1, OC43, MRC5; MRC-5 cells, 72 hours
[11] = test system: SARS-CoV-2 hCoV-19/Japan/TY11-927/2021 (Delta); assay type: in vivo, Syrian hamsters; conditions: 4 days after initiation of co-housing
[12] = test system: SARS-CoV-2 hCoV-19/Japan/TY41-702/2022 strain (Omicron BE.1/BA.5-like); set-up: species or system Syrian hamsters; conditions: hamster, in vivo; remark: listed apart in the source
[13] = molecular target: T1, Recombinant SARS-CoV-2 3CL Protease (Severe acute respiratory syndrome coronavirus 2, UniProt P0DTD1); assay: Inhibitory activity test on SARS-CoV-2 3CL protease (Test Example 2-1); assay type: biochemical; conditions: 8 µM substrate, 6 nM or 0.6 nM enzyme, 3 to 5 hours
T1 construct: Recombinant SARS-CoV-2 3CL Protease; purchased

Compound N#CCn1c(N2CC3(C2)CC(F)(F)C3)c(-c2ccc(F)c(Cl)c2)c(=O)n(-c2cncc(Cl)c2)c1=O [Compound I-1] has an EC90 ([1]; extrapolated to 100% hamster serum by linear regression, read-out: Hamster serum PA-EC90) of 8.17 nM, an EC90 ([1]; extrapolated to 100% human serum by linear regression, read-out: Human serum PA-EC90) of 7.9 nM and an EC90 ([1]; extrapolated to 100% mouse serum by linear regression, read-out: Mouse serum PA-EC90) of 19.8 nM. It also gave an EC50 ([2]; Severe acute respiratory syndrome coronavirus 2, VeroE6/TMPRSS2, Alpha, B. 1. 1. 7, strain QHN002) of 3.85 ± 1.41 nM, an EC50 ([2]; Severe acute respiratory syndrome coronavirus 2, VeroE6/TMPRSS2, Ancestral, Pango lineage A, strain WK-521) of 8.77 ± 1.92 nM and an EC50 ([2]; Severe acute respiratory syndrome coronavirus 2, VeroE6/TMPRSS2, Beta, B. 1. 351, strain TY8-612) of 9.64 ± 1.2 nM. It also gave an EC50 ([2]; Severe acute respiratory syndrome coronavirus 2, VeroE6/TMPRSS2, Delta, AY. 122, strain TY11-927) of 4.91 ± 1.29 nM, an EC50 ([2]; Severe acute respiratory syndrome coronavirus 2, VeroE6/TMPRSS2, Gamma, P. 1, strain TY7-501) of 8.91 ± 1.62 nM and an EC50 ([2]; Severe acute respiratory syndrome coronavirus 2, VeroE6/TMPRSS2, Omicron BA. 1. 1, strain TY38-871) of 2.63 nM. The EC50 ([2]; Severe acute respiratory syndrome coronavirus 2, VeroE6/TMPRSS2, Omicron BA. 2, strain TY40-385) was 7.38 ± 3.82 nM, the EC50 ([2]; Severe acute respiratory syndrome coronavirus 2, VeroE6/TMPRSS2, Omicron BA. 2. 12. 1, strain TY41-721) was 2.27 ± 0.26 nM and the EC50 ([2]; Severe acute respiratory syndrome coronavirus 2, VeroE6/TMPRSS2, Omicron BA. 2. 75, strain TY41-716) was 8.44 ± 1.25 nM. For the same compound, the EC50 ([2]; Severe acute respiratory syndrome coronavirus 2, VeroE6/TMPRSS2, Omicron BA. 4. 1, strain TY41-703) was 2.45 ± 0.4 nM, the EC50 ([2]; Severe acute respiratory syndrome coronavirus 2, VeroE6/TMPRSS2, Omicron BA. 4. 6, strain TY41-763) was 6.91 ± 1.21 nM and the EC50 ([2]; Severe acute respiratory syndrome coronavirus 2, VeroE6/TMPRSS2, Omicron BA. 5. 2. 1, strain TY41-704) was 6.8 ± 1.38 nM. For the same compound, the EC50 ([2]; Severe acute respiratory syndrome coronavirus 2, VeroE6/TMPRSS2, Omicron BE. 1/BA. 5-like, strain TY41-702) was 6.54 ± 3.49 nM, the EC50 ([2]; Severe acute respiratory syndrome coronavirus 2, VeroE6/TMPRSS2, Omicron BF. 7, strain TY41-820) was 9.49 ± 0.56 nM and the EC50 ([2]; Severe acute respiratory syndrome coronavirus 2, VeroE6/TMPRSS2, Omicron BF. 7. 4. 1, strain TY41-828) was 7.39 ± 1.97 nM. It also gave an EC50 ([2]; Severe acute respiratory syndrome coronavirus 2, VeroE6/TMPRSS2, Omicron BQ. 1. 1, strain TY41-796) of 11 ± 1.7 nM, an EC50 ([2]; Severe acute respiratory syndrome coronavirus 2, VeroE6/TMPRSS2, Omicron CH. 1. 1. 11, strain TY41-832) of 5.69 ± 2.44 nM and an EC50 ([2]; Severe acute respiratory syndrome coronavirus 2, VeroE6/TMPRSS2, Omicron XBB. 1, strain TY41-795) of 5.11 ± 2.15 nM. It also gave an EC50 ([2]; Severe acute respiratory syndrome coronavirus 2, VeroE6/TMPRSS2, Omicron XBB. 1. 5, strain 23-018) of 7.4 ± 1.08 nM, an EC50 ([2]; Severe acute respiratory syndrome coronavirus 2, VeroE6/TMPRSS2, Omicron XBB. 1. 9. 1, strain TY41-951) of 12.6 ± 0.9 nM and an EC50 ([2]; Severe acute respiratory syndrome coronavirus 2, VeroE6/TMPRSS2, Omicron XBB. 1. 16, strain TY41-984) of 7.06 ± 2 nM. For the same compound, the EC50 ([2]; Severe acute respiratory syndrome coronavirus 2, VeroE6/TMPRSS2, Omicron XBF, strain TY41-831) was 6.27 ± 3.3 nM, the EC50 ([2]; Severe acute respiratory syndrome coronavirus 2, VeroE6/TMPRSS2, Omicron XE, strain TY41-686) was 7.1 ± 2.59 nM and the survival [3] was “all hamsters survived until 10 days after infection”. For the same compound, the body weight loss ([3]; up to 10 days) was “suppression of the body weight loss was observed”, the “plasma concentrations immediately before infection” value (3 mg/kg subcutaneous, administered one day prior to infection) was 6.1 ng/mL and the “plasma concentrations immediately before infection” value (3 mg/kg subcutaneous, administered three days prior to infection) was 5.9 ng/mL. For the same compound, the “plasma concentrations immediately before infection” value (10 mg/kg subcutaneous, administered one day prior to infection) was 12.5 ng/mL, the “plasma concentrations immediately before infection” value (10 mg/kg subcutaneous, administered three days prior to infection) was 3.0 ng/mL and the CC50 at 72 h [4] was greater than 100000 nM. The body weight loss ([5]; hamster, in vivo) was “suppression of the body weight loss was observed”, the “viral titers in nasal turbinate homogenates” value ([5]; hamster, in vivo) was 4.80 log10 TCID50/mL and 3.36 log10 TCID50/mL and 5.38 log10 TCID50/mL and 5.01 log10 TCID50/mL and the “plasma concentration exhibiting the effect of suppressing viral proliferation in lung and nasal turbinate homogenates” value ([5]; hamster, in vivo, sc) was no less than 12 ng/mL. The “plasma concentrations at the time of viral infection exhibiting the effect of suppressing body weight loss” value ([5]; prophylactic subcutaneous administration) was no less than 6 ng/mL, the lung weight/body weight [6] was 8.24 mg/g and 5.75 mg/g and 5.57 mg/g and the EC90 [7] was 2.41 ± 1.61 nM. For the same compound, the EC50 [8] was 3570 ± 510 nM, the EC50 [9] was 1.66 nM and the EC50 [10] was 92 ± 21 nM. For the same compound, the “numbers of non-infected hamsters (Contact) in which viral titers in nasal lavage fluid or supernatants of lung homogenate reached the detection limit (1.8 log10 TCID50/mL) or higher” value ([11]; 3 mg/kg single subcutaneous to Contact 12 hours prior to co-housing) was 5/6, the “numbers of non-infected hamsters (Contact) in which viral titers in nasal lavage fluid or supernatants of lung homogenate reached the detection limit (1.8 log10 TCID50/mL) or higher” value ([11]; 10 mg/kg single subcutaneous to Contact 12 hours prior to co-housing) was 6/6 and the “numbers of non-infected hamsters (Contact) in which viral titers in nasal lavage fluid or supernatants of lung homogenate reached the detection limit (1.8 log10 TCID50/mL) or higher” value ([11]; 30 mg/kg single subcutaneous to Contact 12 hours prior to co-housing) was 3/6. For the same compound, the “numbers of non-infected hamsters (Contact) in which viral titers in nasal lavage fluid or supernatants of lung homogenate reached the detection limit (1.8 log10 TCID50/mL) or higher” value ([11]; 90 mg/kg single subcutaneous to Contact 12 hours prior to co-housing) was 0/6 and the body weight [12] was “the decrease in body weight was suppressed”.

With [2H]c1cc(F)c(Cl)c([2H])c1-c1c(N2CC3(C2)CC(F)(F)C3)n(CC#N)c(=[18O])n(-c2cncc(Cl)c2)c1=[18O] [Compound I-2] the EC50 [9] was 2.36 nM.

C#CCn1c(N2CC3(C2)CC(F)(F)C3)c(-c2ccc(F)c(Cl)c2)c(=O)n(-c2cncc(Cl)c2)c1=O [Compound II-1] showed an IC50 [13] of 0.68 nM.
